Data reported in patent publication EP4778918A1, “RADIOACTIVE POSITRON-EMITTING NUCLIDE CARBON-11 LABELED COMPOUND AND RADIOACTIVE COMPOSITION” (The University of Osaka, priority 2023, dated 2025).

Key:
[1] = Stability of the produced [^11C]HCA2969 over time (quality test, radiochemical purity); assay type: physicochemical; settings: immediately after synthesis and even 90 minutes after synthesis; final formulation, approximately 10% ethanol in physiological saline
Source text: [^11C]HCA2969 was produced according to the following procedure. A synthesis scheme is shown in FIG. 1. • (1) [^11C]CO2 was produced via nuclear reaction of ^14N(p,α)^11C using N2 gas as a target using a medical cyclotron (CYPRIS HM-18, Sumitomo Heavy Industries, Ltd.). The obtained [^11C]CO2 was introduced into a vapor phase method methyl iodide synthesizer (C-GPC-100, Sumitomo Heavy Industries, Ltd.) to synthesize […] ([^11C]CH3OTf) having high reaction activity. • (2) [^11C]CH3OTf was introduced into a reaction vessel containing 500 µL of a solution of 1 mg/mL HCA2969 precursor (QD) in acetone and 3 µL of 1 mol/L NaOH and subjected to bubbling. • (3) 100 µL of 0.1 mol/L NaOH was added to the solution obtained after the bubbling in the above step (2) and a deprotection reaction was performed at room temperature for 10 minutes. • (4) 1 mL of water for injection was added to the solution obtained after the deprotection in the above step (3), the mixture was mixed thoroughly, and the whole volume was injected into HPLC to fractionate and collect [^11C]HCA2969. A representative HPLC chromatogram is shown in FIG. 2. • (5) The fractionated and collected solution was diluted with water for injection, and the whole volume was introduced into a solid-phase extraction column (HLB column) to retain [^11C]HCA2969. […]

[2] = molecular target: T1, VLA-4 (Mus musculus, UniProt P09055+Q00651); assay: [^11C]HCA2969 binding to VLA-4 in mouse monocytes (saturation, Scatchard analysis); settings: 2 × 10^6 spleen monocytes
T1 construct: monocytes collected from a spleen of a mouse; endogenous in cells; host or cells: primary monocytes from mouse spleen
Procedure: Monocytes collected from a mouse were used to evaluate the binding of a [^11C]HCA2969 to VLA-4.
2 × 10^6 monocytes collected from a spleen of a mouse and a [^11C]HCA2969 synthesized in the above section 1 were added to buffer (10mM Tris pH 7.5, 0.1% BSA, 150 mM NaCl, 2 mM MnCl2, 2 mM D-glucose) at concentrations of 0.025 nM, 0.1 nM, 0.4 nM, 1.6 nM, 6.4 nM and 25.6 nM, respectively, and mixed. After mixing, the cells were incubated at room temperature for 20 minutes and washed 2 times with buffer (10mM Tris pH 7.5, 0.1% BSA, 150 mM NaCl, 2 mM MnCl2, 2 mM D-glucose). Radiation dose was measured for the washed cells using a scintillation counter.

[3] = tested on: MRL-Pdcd1-/- and wild-type mice; assay: Detection of myocarditis by PET/CT imaging with [^11C]HCA2969 tracer in mice; assay type: in vivo; settings: about 1 to 10 MBq intravenously, days 25 to 26
Procedure: In the MRL-Pdcd1-/- and wild-type mice prepared in the above section 5, a [^11C]HCA2969 tracer (about 1 to 10 MBq) was administered intravenously via a tail vein under inhalation anesthesia with isoflurane on days 25 to 26, followed by PET/CT imaging.

[4] = tested on: autoimmune myocarditis model rat; assay: Detection of autoimmune myocarditis by PET/CT imaging with [^11C]HCA2969 tracer in rats; assay type: in vivo, Lewis rats; settings: autoimmune myocarditis model rats at 3 weeks of induction; about 1 to 10 MBq intravenously
Procedure: An autoimmune myocarditis model rat was prepared by administering 10 mg/ml of Pig Cardiac Myosin (purified in-house from pig heart) and Adjuvant (CFA 10 mg/ml; Chondrex, Inc., 7002) to Lewis rats (male, 8 weeks old). A day of administration of the Pig Cardiac Myosin was set as Day 0. In this model, myocarditis reached its climax on Day 21. […] On Day 12, infiltration of inflammatory cells into cardiac muscle tissue began, and, on Day 19, more intense infiltration of the inflammatory cells was observed. On Day 25, destruction of the cardiac muscle tissue due to inflammation was observed.
In autoimmune myocarditis model rat prepared in the above section 2, a [^11C]HCA2969 tracer at about 1 to 10 MBq was administered intravenously via a tail vein under inhalation anesthesia with isoflurane at 3 weeks of induction, which is the climax of myocarditis, followed by PET/CT imaging.

[5] = tested on: PD1-/- mice; assay: Determination of therapeutic effect on myocarditis by PET/CT with [^11C]HCA2969 tracer; assay type: in vivo
Procedure: Groups of wild-type mice, placebo PD1-/- mice, AJM300-administered PD1-/- mice and anti-VLA-4 neutralizing antibody-administered PD 1-/- mice at 4 weeks of age were prepared. The placebo group was fed a normal diet and the AJM300-administered group was fed a diet containing 1% AJM300 from day 14 to day 28 after the start of rearing. The anti-VLA-4 neutralizing antibody-administered group was fed a normal diet and administered with anti-VLA -4 neutralizing antibody (10 mg/kg) intraperitoneally on days 14 and 21 after the start of rearing. On day 28 after the start of rearing, each mouse was anesthetized with isoflurane (1 to 3% in 2 L of O2) and injected with a [^11C]HCA2969 tracer (1 to 10 MBq: 10 µg of unlabeled HCA2969 containing 10 MBq of PET tracer) via a tail vein. Twenty minutes after the injection, PET/CT imaging was performed for 10 minutes.

[6] = tested on: EAE mice; settings: mouse, in vivo
[7] = tested on: EAE model mice; settings: mouse, in vivo
[8] = tested on: MRL-Pdcd1-/- mice; assay: Administration of VLA4 inhibitor AJM300 to myocarditis model mice (survival, echocardiography); assay type: in vivo; settings: compared with AJM300(-) group
Procedure: The AJM300 group (+) was administered with a mixed diet containing 1% of AJM300 from 2 weeks of age until death.
At 28 days of age, 9 mice in the AJM300(-) group and 10 mice in the AJM300(+) group were evaluated for cardiac function by echocardiography and then euthanized to collect heart and blood samples.

[9] = tested on: autoimmune myocarditis model rats; assay: Anti-VLA-4 neutralizing antibody or AJM300 administration in rat autoimmune myocarditis model (cardiac function); assay type: in vivo, Lewis rats; settings: 21 days after induction of myocarditis; diet with 1% AJM300, or 5 mg/kg antibody intravenously at 0w, 1w, 2w, 3w; compared with placebo group
Source text: Study groups were: placebo group (5 animals), AJM300-administered group (4 animals), and neutralizing antibody-administered group (5 animals) administered with anti-VLA-4-neutralizing antibody. The placebo group was fed a diet mixed with placebo (0.43% METOLOSE + 0.14% Ac-Di-Sol) from 3 days before induction of myocarditis to 3 weeks. The AJM300-administered group was fed a diet mixed with 1% AJM300 from 3 days before induction of myocarditis to 3 weeks. The neutralizing antibody-administered group was intravenously administered with 5 mg/kg of neutralizing antibody at the time of induction of myocarditis (0w), 1 week after induction of myocarditis (1w), 2 weeks after induction of myocarditis (2w), and 3 weeks after induction of myocarditis (3w). Left ventricular contractile performance and heart rate were evaluated 21 days after induction of myocarditis.

[10] = echocardiography at 28 days of age, diet containing 1% of AJM300, t-test p=0.0231

T1 sequence (Q00651 41-1039): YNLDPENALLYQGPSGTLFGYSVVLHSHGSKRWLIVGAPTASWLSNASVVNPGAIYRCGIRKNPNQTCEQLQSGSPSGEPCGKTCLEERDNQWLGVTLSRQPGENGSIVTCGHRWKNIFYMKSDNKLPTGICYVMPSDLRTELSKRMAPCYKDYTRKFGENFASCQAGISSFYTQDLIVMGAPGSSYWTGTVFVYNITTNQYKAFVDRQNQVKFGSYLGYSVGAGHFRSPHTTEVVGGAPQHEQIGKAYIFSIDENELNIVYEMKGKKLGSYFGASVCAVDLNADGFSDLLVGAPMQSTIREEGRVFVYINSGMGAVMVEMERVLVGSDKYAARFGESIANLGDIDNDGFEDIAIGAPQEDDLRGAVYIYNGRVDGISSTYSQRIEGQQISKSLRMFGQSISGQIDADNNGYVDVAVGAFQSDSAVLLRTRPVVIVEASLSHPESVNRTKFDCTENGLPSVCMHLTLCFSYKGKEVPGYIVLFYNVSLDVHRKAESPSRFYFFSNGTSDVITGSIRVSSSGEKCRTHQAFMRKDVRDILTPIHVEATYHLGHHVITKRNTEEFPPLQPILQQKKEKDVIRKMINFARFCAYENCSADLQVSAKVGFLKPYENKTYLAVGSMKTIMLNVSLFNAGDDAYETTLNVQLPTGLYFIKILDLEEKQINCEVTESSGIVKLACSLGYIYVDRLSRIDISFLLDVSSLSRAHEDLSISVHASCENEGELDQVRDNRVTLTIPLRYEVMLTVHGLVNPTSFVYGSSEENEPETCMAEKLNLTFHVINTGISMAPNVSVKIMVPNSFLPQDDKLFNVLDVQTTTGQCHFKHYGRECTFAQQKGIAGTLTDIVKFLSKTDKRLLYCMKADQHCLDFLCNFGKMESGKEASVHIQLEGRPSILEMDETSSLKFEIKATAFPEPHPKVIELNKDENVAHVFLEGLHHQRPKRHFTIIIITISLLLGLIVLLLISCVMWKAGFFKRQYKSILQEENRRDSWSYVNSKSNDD
T1 sequence (P09055 21-798): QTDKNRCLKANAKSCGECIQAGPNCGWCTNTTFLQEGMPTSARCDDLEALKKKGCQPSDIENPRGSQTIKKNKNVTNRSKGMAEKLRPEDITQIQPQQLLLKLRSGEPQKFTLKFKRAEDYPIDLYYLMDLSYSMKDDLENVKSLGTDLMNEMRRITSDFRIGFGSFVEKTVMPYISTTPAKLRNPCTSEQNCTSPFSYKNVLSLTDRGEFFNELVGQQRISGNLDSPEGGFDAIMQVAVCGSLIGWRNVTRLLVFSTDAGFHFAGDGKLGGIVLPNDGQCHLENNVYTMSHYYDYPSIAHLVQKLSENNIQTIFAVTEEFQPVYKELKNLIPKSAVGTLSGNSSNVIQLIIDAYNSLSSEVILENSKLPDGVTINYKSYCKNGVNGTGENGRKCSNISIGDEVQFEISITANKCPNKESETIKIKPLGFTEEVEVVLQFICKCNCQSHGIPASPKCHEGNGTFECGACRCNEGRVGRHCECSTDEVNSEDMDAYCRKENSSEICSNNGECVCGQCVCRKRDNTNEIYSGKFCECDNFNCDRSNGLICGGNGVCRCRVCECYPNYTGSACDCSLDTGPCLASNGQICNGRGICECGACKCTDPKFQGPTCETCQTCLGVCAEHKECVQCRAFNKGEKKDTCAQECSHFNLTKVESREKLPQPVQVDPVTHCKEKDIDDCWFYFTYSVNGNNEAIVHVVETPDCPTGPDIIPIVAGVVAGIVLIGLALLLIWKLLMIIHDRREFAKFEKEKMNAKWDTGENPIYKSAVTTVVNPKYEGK

CN(C)c1ccc2c(c1)c(=O)n(-c1ccc(CC(NC(=O)c3c(Cl)cccc3Cl)C(=O)O)cc1)c(=O)n2[11CH3] (stereo not shown) [[^11C]HCA2969]
radiochemical purity [1]: ≥ 90%
Bmax [2]: 81.85 Bq
Kd ([2]; 0.025 nM to 25.6 nM, room temperature, 20 minutes, read-out: equilibrium dissociation constant Kd): 0.16 nM
tracer accumulation in hearts ([3]; two MRL-Pdcd1-/- mice): observed
tracer accumulation in hearts ([3]; two wild-type mice): no tracer accumulation
tracer accumulation in hearts [4]: no tracer accumulation
accumulation of the [^11C]HCA2969 tracer in the cardiac region ([5]; PD1-/- mouse, untreated, day 28, imaging twenty minutes after the injection): observed
SUV mean [6]: high accumulation
SUV median [6]: high accumulation
accumulation of the tracer signal in the brain [7]: increasing trend
accumulation of the tracer signal in the spinal cord [7]: significant increase

COC(=O)[C@H](Cc1ccc(-n2c(=O)c3cc(N(C)C)ccc3n(C)c2=O)cc1)NC(=O)c1c(Cl)cccc1Cl [AJM300, carotegrast methyl]
heart rate [8, 10]: significantly ameliorated bradycardia
left ventricular contractile performance: % Fractional Shortening (%) [8, 10]: significantly improved
Survival period (Kaplan-Meier) ([8]; mixed diet containing 1% of AJM300 from 2 weeks of age, Log-rank test p=0.0022): significantly prolonged
cardiac function (left ventricular contractile performance and heart rate) [9]: no effect
accumulation of the [^11C]HCA2969 tracer in the cardiac region ([5]; treated PD1-/- mice compared to the placebo group, diet containing 1% AJM300 day 14 to day 28, or antibody 10 mg/kg intraperitoneally on days 14 and 21): lower
